For one cell line, relative viability results are on record in the supplement of paper PMC10307832.

Holding throughout (test): relative viability (nuclei count vs DMSO), 5 days (fraction); higher = more cells survive
Compound in assay [1]: O=C(c1cc(Cc2n[nH]c(=O)c3ccccc23)ccc1F)N1CCN(C(=O)C2CC2)CC1 [Olaparib] + O=C(CCCCCCC(=O)Nc1ccccc1)NO [Vorinostat] (partner 1 µM)
The method in brief:
(§1)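 Each reported value is a median over duplicate plates. It expresses relative viability: treated-well nuclei count divided by vehicle-well nuclei count. Lung cancer cell lines in 1536-well plates were dosed by pin tool a day after seeding, alone with one drug or with a fixed anchor-drug dose plus five library-drug doses (not always all listed) in √10 steps, and nuclei were counted after 5 days.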

Compound in assay [2]: O=C(c1cc(Cc2n[nH]c(=O)c3ccccc23)ccc1F)N1CCN(C(=O)C2CC2)CC1 [Olaparib] + Nc1nc2[nH]cc(CCc3ccc(C(=O)N[C@@H](CCC(=O)O)C(=O)O)cc3)c2c(=O)[nH]1 [Pemetrexed] (partner 0.2 µM)
The method in brief: as §1

Compound in assay [3]: C[C@@H](Oc1cc(-c2cnn(C3CCNCC3)c2)cnc1N)c1c(Cl)ccc(F)c1Cl [Crizotinib] + CCNC(=O)c1noc(-c2cc(C(C)C)c(O)cc2O)c1-c1ccc(CN2CCOCC2)cc1 [Luminespib] (partner 0.01 µM)
The method in brief:
as §1

Compound in assay [4]: CC(C)C[C@H](NC(=O)[C@H](CCc1ccccc1)NC(=O)CN1CCOCC1)C(=O)N[C@@H](Cc1ccccc1)C(=O)N[C@@H](CC(C)C)C(=O)[C@@]1(C)CO1 [Carfilzomib] + Cc1cc(Nc2cc(N3CCN(C)CC3)nc(Sc3ccc(NC(=O)C4CC4)cc3)n2)n[nH]1 [Tozasertib] (partner 0.1 µM)
The method in brief: as §1

Compound in assay [5]: CC(C)C[C@H](NC(=O)[C@H](CCc1ccccc1)NC(=O)CN1CCOCC1)C(=O)N[C@@H](Cc1ccccc1)C(=O)N[C@@H](CC(C)C)C(=O)[C@@]1(C)CO1 [Carfilzomib] + COc1cc2c(Oc3ccc(NC(=O)C4(C(=O)Nc5ccc(F)cc5)CC4)cc3F)ccnc2cc1OCCCN1CCOCC1 [Foretinib] (partner 0.25 µM)
In short, it runs like this: as §1

Turning to NCI-H1793, the relative viability in assay [1] (first compound 0.08 µM) is 0.841; in assay [1] (first compound 0.253 µM) it was 0.707; in assay [1] (first compound 2.53 µM) it was 0.683; in assay [1] (first compound 8 µM) it was 0.679; in assay [2] (first compound 0.08 µM), 0.647; in assay [2] (first compound 0.253 µM) it was 0.652. Besides, the relative viability is 0.841 in assay [2] (first compound 2.53 µM); 0.79 in assay [2] (first compound 8 µM); 0.209 in assay [3] (first compound 0.03162 µM); 0.178 in assay [3] (first compound 0.1 µM); 0.161 in assay [3] (first compound 1 µM); 0.469 in assay [4] (first compound 0.003162 µM). Also, the relative viability in assay [4] (first compound 0.01 µM) worked out at 0.327; in assay [4] (first compound 0.03162 µM) it was 0.292; in assay [4] (first compound 0.1 µM), 0.123; in assay [5] (first compound 0.003162 µM), 0.664; in assay [5] (first compound 0.01 µM) it was 0.823; in assay [5] (first compound 0.03162 µM), 0.707. In assay [5] (first compound 0.1 µM), the relative viability was 0.393.
